Results taken from patent US9738634B2, “Heterocyclic amide compound and herbicide” (SYNGENTA PARTICIPATIONS AG, priority 2013, dated 2017).

Legend:
Assay type in all cases: in vivo
catchweed [1] = assay: Test Example 3: weedkilling efficacy through soil treatment; O: catchweed; details: treatment dosage 315 g/ha
Summary of the method: (§1)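 Crop and weed responses were judged three weeks after a uniform surface spray of the water-diluted emulsion at the given g/ha rate. Seeds sat beneath about 1.5 cm of sterilized diluvial soil, and boxes stood in a greenhouse at 25 to 30° C.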

directly sown rice [2] = assay: Test Example 4: foliar treatment, effect on crop; b: directly sown rice; details: treatment dosage 315 g/ha
Summary of the method: (§2)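 Seeds are spot-sown into sterilized diluvial soil and covered with about 1.5 cm of soil. After 14 days' greenhouse growth at 25 to 30° C, plants are sprayed on stems and leaves with diluted emulsion at the stated g/ha rate, then scored at 3 weeks.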

wheat [3] = assay: Test Example 4: foliar treatment, effect on crop; e: wheat; details: treatment dosage 315 g/ha
Summary of the method: as §2

redroot pigweed [4] = assay: Test Example 3: weedkilling efficacy through soil treatment; L: redroot pigweed; details: treatment dosage 315 g/ha
Summary of the method: as §1

crabgrass [5] = assay: Test Example 4: weedkilling efficacy by foliar treatment; D: crabgrass; details: treatment dosage 315 g/ha
Summary of the method: as §2

black-grass [6] = assay: Test Example 4: weedkilling efficacy by foliar treatment; H: black-grass; details: treatment dosage 315 g/ha
Summary of the method: as §2

oval-leafed pondweed [7] = assay: Test Example 2: weedkilling efficacy, growth period weed treatment in the submerged state; C: oval-leafed pondweed; details: treatment dosage 252 g/ha
Summary of the method: (§3)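 First, alluvial soil in pots is flooded to 4 cm and mixed seed is sown. Next, plants grow in a greenhouse at 25 to 30° C until the 1-2 leaf stage. Then diluted emulsion is applied onto the water surface at the given g/ha rate, and injury is assessed after 3 weeks.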

bulrush [8] = assay: Test Example 2: weedkilling efficacy, growth period weed treatment in the submerged state; B: bulrush; details: treatment dosage 252 g/ha
Summary of the method: as §3

wheat [9] = assay: Test Example 3: soil treatment, effect on crop; e: wheat; details: treatment dosage 315 g/ha
Summary of the method: as §1

birds-eye speedwell = assay: Test Example 4: weedkilling efficacy by foliar treatment; p: birds-eye speedwell; details: treatment dosage 315 g/ha
Summary of the method: as §2

Italian ryegrass [10] = assay: Test Example 3: weedkilling efficacy through soil treatment; I: Italian ryegrass; details: treatment dosage 315 g/ha
Summary of the method: as §1

barnyard grass [11] = assay: Test Example 2: weedkilling efficacy, growth period weed treatment in the submerged state; A: barnyard grass; details: treatment dosage 252 g/ha
Summary of the method: as §3

catchweed [12] = assay: Test Example 4: weedkilling efficacy by foliar treatment; O: catchweed; details: treatment dosage 315 g/ha
Summary of the method: as §2

corn [13] = assay: Test Example 3: soil treatment, effect on crop; c: corn; details: treatment dosage 315 g/ha
Summary of the method: as §1

chickweed [14] = assay: Test Example 3: weedkilling efficacy through soil treatment; N: chickweed; details: treatment dosage 315 g/ha
Summary of the method: as §1

corn [15] = assay: Test Example 4: foliar treatment, effect on crop; c: corn; details: treatment dosage 315 g/ha
Summary of the method: as §2

oval-leafed pondweed [16] = assay: Test Example 1: weedkilling efficacy, preemergent weed treatment in the submerged state; C: oval-leafed pondweed; details: treatment dosage 252 g/ha
Summary of the method: (§4)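 Alluvial soil in Wagner pots flooded to 4 cm; barnyard grass, bulrush and oval-leafed pondweed seeds sown, then 2.5-leaf rice seedlings transplanted. Same day, emulsified compound diluted in water to set g/ha dosages and applied to water surface; greenhouse 25–30 °C, effect scored by criteria after 3 weeks.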

wild oat [17] = assay: Test Example 4: weedkilling efficacy by foliar treatment; G: wild oat; details: treatment dosage 315 g/ha
Summary of the method: as §2

Indian mallow [18] = assay: Test Example 4: weedkilling efficacy by foliar treatment; K: Indian mallow; details: treatment dosage 315 g/ha
Summary of the method: as §2

soybean [19] = assay: Test Example 3: soil treatment, effect on crop; d: soybean; details: treatment dosage 315 g/ha
Summary of the method: as §1

Italian ryegrass [20] = assay: Test Example 4: weedkilling efficacy by foliar treatment; I: Italian ryegrass; details: treatment dosage 315 g/ha
Summary of the method: as §2

Indian mallow [21] = assay: Test Example 3: weedkilling efficacy through soil treatment; K: Indian mallow; details: treatment dosage 315 g/ha
Summary of the method: as §1

chickweed [22] = assay: Test Example 4: weedkilling efficacy by foliar treatment; N: chickweed; details: treatment dosage 315 g/ha
Summary of the method: as §2

barnyard grass [23] = assay: Test Example 1: weedkilling efficacy, preemergent weed treatment in the submerged state; A: barnyard grass; details: treatment dosage 252 g/ha
Summary of the method: as §4

fig-leafed goosefoot [24] = assay: Test Example 4: weedkilling efficacy by foliar treatment; M: fig-leafed goosefoot; details: treatment dosage 315 g/ha
Summary of the method: as §2

transplanted rice = assay: Test Example 1: preemergent weed treatment in the submerged state, effect on crop; a: transplanted rice; details: treatment dosage 252 g/ha
Summary of the method: as §4

bulrush [25] = assay: Test Example 1: weedkilling efficacy, preemergent weed treatment in the submerged state; B: bulrush; details: treatment dosage 252 g/ha
Summary of the method: as §4

black-grass [26] = assay: Test Example 3: weedkilling efficacy through soil treatment; H: black-grass; details: treatment dosage 315 g/ha
Summary of the method: as §1

crabgrass [27] = assay: Test Example 3: weedkilling efficacy through soil treatment; D: crabgrass; details: treatment dosage 315 g/ha
Summary of the method: as §1

fig-leafed goosefoot [28] = assay: Test Example 3: weedkilling efficacy through soil treatment; M: fig-leafed goosefoot; details: treatment dosage 315 g/ha
Summary of the method: as §1

beet [29] = assay: Test Example 4: foliar treatment, effect on crop; f: beet; details: treatment dosage 315 g/ha
Summary of the method: as §2

redroot pigweed [30] = assay: Test Example 4: weedkilling efficacy by foliar treatment; L: redroot pigweed; details: treatment dosage 315 g/ha
Summary of the method: as §2

beet [31] = assay: Test Example 3: soil treatment, effect on crop; f: beet; details: treatment dosage 315 g/ha
Summary of the method: as §1

wild oat [32] = assay: Test Example 3: weedkilling efficacy through soil treatment; G: wild oat; details: treatment dosage 315 g/ha
Summary of the method: as §1

green foxtail [33] = assay: Test Example 3: weedkilling efficacy through soil treatment; E: green foxtail; details: treatment dosage 315 g/ha
Summary of the method: as §1

soybean [34] = assay: Test Example 4: foliar treatment, effect on crop; d: soybean; details: treatment dosage 315 g/ha
Summary of the method: as §2

directly sown rice [35] = assay: Test Example 3: soil treatment, effect on crop; b: directly sown rice; details: treatment dosage 315 g/ha
Summary of the method: as §1

green foxtail [36] = assay: Test Example 4: weedkilling efficacy by foliar treatment; E: green foxtail; details: treatment dosage 315 g/ha
Summary of the method: as §2

Row | Structure (SMILES) | O (catchweed) weedkilling efficacy grade (catchweed [1]) | b (directly sown rice) effect on crop grade (directly sown rice [2]) | e (wheat) effect on crop grade (wheat [3]) | L (redroot pigweed) weedkilling efficacy grade (redroot pigweed [4]) | D (crabgrass) weedkilling efficacy grade (crabgrass [5]) | H (black-grass) weedkilling efficacy grade (black-grass [6]) | C (oval-leafed pondweed) weedkilling efficacy grade (oval-leafed pondweed [7]) | B (bulrush) weedkilling efficacy grade (bulrush [8]) | e (wheat) effect on crop grade (wheat [9]) | P (birds-eye speedwell) weedkilling efficacy grade (birds-eye speedwell) | I (Italian ryegrass) weedkilling efficacy grade (Italian ryegrass [10]) | A (barnyard grass) weedkilling efficacy grade (barnyard grass [11]) | O (catchweed) weedkilling efficacy grade (catchweed [12]) | c (corn) effect on crop grade (corn [13]) | N (chickweed) weedkilling efficacy grade (chickweed [14]) | c (corn) effect on crop grade (corn [15]) | C (oval-leafed pondweed) weedkilling efficacy grade (oval-leafed pondweed [16]) | G (wild oat) weedkilling efficacy grade (wild oat [17]) | K (Indian mallow) weedkilling efficacy grade (Indian mallow [18]) | d (soybean) effect on crop grade (soybean [19]) | further results
1 | CC1=C(c2ccccc2)C(=O)N(C(C)(C)C(=O)Nc2cc(Br)ccn2)CO1 [B-2-30] | 5 (weed kill ratio 90% or more, (practically complete withering)) | 5 (weed kill ratio 90% or more, (practically complete withering)) | 0 (weed kill ratio 5% or less (practically no effect)) | 3 (weed kill ratio 40% or more, less than 70%) | 5 (weed kill ratio 90% or more, (practically complete withering)) | 3 (weed kill ratio 40% or more, less than 70%) | 3 (weed kill ratio 40% or more, less than 70%) | 5 (weed kill ratio 90% or more, (practically complete withering)) | 0 (weed kill ratio 5% or less (practically no effect)) | 4 (weed kill ratio 70% or more, less than 90%) | 5 (weed kill ratio 90% or more, (practically complete withering)) | 5 (weed kill ratio 90% or more, (practically complete withering)) | 4 (weed kill ratio 70% or more, less than 90%) | 1 (weed kill ratio 5% or more, less than 20%) | 4 (weed kill ratio 70% or more, less than 90%) | 1 (weed kill ratio 5% or more, less than 20%) | 5 (weed kill ratio 90% or more, (practically complete withering)) | 3 (weed kill ratio 40% or more, less than 70%) | 4 (weed kill ratio 70% or more, less than 90%) | 1 (weed kill ratio 5% or more, less than 20%) | I (Italian ryegrass) weedkilling efficacy grade (Italian ryegrass [20]): 4 (weed kill ratio 70% or more, less than 90%); K (Indian mallow) weedkilling efficacy grade (Indian mallow [21]): 3 (weed kill ratio 40% or more, less than 70%); N (chickweed) weedkilling efficacy grade (chickweed [22]): 3 (weed kill ratio 40% or more, less than 70%); A (barnyard grass) weedkilling efficacy grade (barnyard grass [23]): 5 (weed kill ratio 90% or more, (practically complete withering)); M (fig-leafed goosefoot) weedkilling efficacy grade (fig-leafed goosefoot [24]): 4 (weed kill ratio 70% or more, less than 90%); a (transplanted rice) effect on crop grade (transplanted rice): 1 (weed kill ratio 5% or more, less than 20%); B (bulrush) weedkilling efficacy grade (bulrush [25]): 5 (weed kill ratio 90% or more, (practically complete withering)); H (black-grass) weedkilling efficacy grade (black-grass [26]): 5 (weed kill ratio 90% or more, (practically complete withering)); D (crabgrass) weedkilling efficacy grade (crabgrass [27]): 5 (weed kill ratio 90% or more, (practically complete withering)); M (fig-leafed goosefoot) weedkilling efficacy grade (fig-leafed goosefoot [28]): 5 (weed kill ratio 90% or more, (practically complete withering)); f (beet) effect on crop grade (beet [29]): 4 (weed kill ratio 70% or more, less than 90%); L (redroot pigweed) weedkilling efficacy grade (redroot pigweed [30]): 4 (weed kill ratio 70% or more, less than 90%); f (beet) effect on crop grade (beet [31]): 4 (weed kill ratio 70% or more, less than 90%); G (wild oat) weedkilling efficacy grade (wild oat [32]): 5 (weed kill ratio 90% or more, (practically complete withering)); E (green foxtail) weedkilling efficacy grade (green foxtail [33]): 5 (weed kill ratio 90% or more, (practically complete withering)); d (soybean) effect on crop grade (soybean [34]): 4 (weed kill ratio 70% or more, less than 90%); b (directly sown rice) effect on crop grade (directly sown rice [35]): 4 (weed kill ratio 70% or more, less than 90%); E (green foxtail) weedkilling efficacy grade (green foxtail [36]): 5 (weed kill ratio 90% or more, (practically complete withering))
2 | CC1=C(c2ccccc2)C(=O)N(C(C)(C)C(=O)Nc2cc(C(F)(F)F)cc(Cl)n2)CO1 [B-2-37] | 4 (weed kill ratio 70% or more, less than 90%) | 4 (weed kill ratio 70% or more, less than 90%) | 1 (weed kill ratio 5% or more, less than 20%) | 5 (weed kill ratio 90% or more, (practically complete withering)) | 5 (weed kill ratio 90% or more, (practically complete withering)) | 4 (weed kill ratio 70% or more, less than 90%) | 5 (weed kill ratio 90% or more, (practically complete withering)) | 5 (weed kill ratio 90% or more, (practically complete withering)) | 0 (weed kill ratio 5% or less (practically no effect)) | 4 (weed kill ratio 70% or more, less than 90%) | 5 (weed kill ratio 90% or more, (practically complete withering)) | 5 (weed kill ratio 90% or more, (practically complete withering)) | 3 (weed kill ratio 40% or more, less than 70%) | 1 (weed kill ratio 5% or more, less than 20%) | 4 (weed kill ratio 70% or more, less than 90%) | 4 (weed kill ratio 70% or more, less than 90%) | 5 (weed kill ratio 90% or more, (practically complete withering)) | 3 (weed kill ratio 40% or more, less than 70%) | 4 (weed kill ratio 70% or more, less than 90%) | 0 (weed kill ratio 5% or less (practically no effect)) | I (Italian ryegrass) weedkilling efficacy grade (Italian ryegrass [20]): 4 (weed kill ratio 70% or more, less than 90%); K (Indian mallow) weedkilling efficacy grade (Indian mallow [21]): 4 (weed kill ratio 70% or more, less than 90%); N (chickweed) weedkilling efficacy grade (chickweed [22]): 4 (weed kill ratio 70% or more, less than 90%); A (barnyard grass) weedkilling efficacy grade (barnyard grass [23]): 5 (weed kill ratio 90% or more, (practically complete withering)); M (fig-leafed goosefoot) weedkilling efficacy grade (fig-leafed goosefoot [24]): 3 (weed kill ratio 40% or more, less than 70%); a (transplanted rice) effect on crop grade (transplanted rice): 2 (weed kill ratio 20% or more, less than 40%); B (bulrush) weedkilling efficacy grade (bulrush [25]): 5 (weed kill ratio 90% or more, (practically complete withering)); H (black-grass) weedkilling efficacy grade (black-grass [26]): 5 (weed kill ratio 90% or more, (practically complete withering)); D (crabgrass) weedkilling efficacy grade (crabgrass [27]): 5 (weed kill ratio 90% or more, (practically complete withering)); M (fig-leafed goosefoot) weedkilling efficacy grade (fig-leafed goosefoot [28]): 4 (weed kill ratio 70% or more, less than 90%); f (beet) effect on crop grade (beet [29]): 4 (weed kill ratio 70% or more, less than 90%); L (redroot pigweed) weedkilling efficacy grade (redroot pigweed [30]): 4 (weed kill ratio 70% or more, less than 90%); f (beet) effect on crop grade (beet [31]): 4 (weed kill ratio 70% or more, less than 90%); G (wild oat) weedkilling efficacy grade (wild oat [32]): 5 (weed kill ratio 90% or more, (practically complete withering)); E (green foxtail) weedkilling efficacy grade (green foxtail [33]): 5 (weed kill ratio 90% or more, (practically complete withering)); d (soybean) effect on crop grade (soybean [34]): 3 (weed kill ratio 40% or more, less than 70%); b (directly sown rice) effect on crop grade (directly sown rice [35]): 3 (weed kill ratio 40% or more, less than 70%); E (green foxtail) weedkilling efficacy grade (green foxtail [36]): 5 (weed kill ratio 90% or more, (practically complete withering))
